Assay results taken from patent US20210147866A1, “PLANTS HAVING INCREASED TOLERANCE TO HERBICIDES” (BASF SE, priority 2017, published 2021).

How the values were obtained:
[1] = system: Arabidopsis thaliana MC24; test: Greenhouse dose response, post-emergence spray of untransformed motherline; type: in vivo; conditions: 9 leaf stage, rates from 0.8 to 100 g/ha, 14 days after treatment (FIG. 2)
[2] = system: Transgenic MC24 plants expressing the short Scenedesmus obliquus HPPD (SEQ ID NO:50); test: Greenhouse post-emergence herbicide tolerance test, transgenic lines expressing short Scenedesmus obliquus HPPD (F363I, amino acids 442-477 deleted); type: in vivo, Arabidopsis thaliana
Description: (§1) Additionally, T1 and T2 transgenic Arabidopsis plants can be tested for improved tolerance to HPPD-inhibiting benzamide herbicides in a greenhouse studies. Herbicide injury scoring is done 2-3 weeks after treatment and is rated on a scale of 0 to 100%, 0% being no injury and 100% being complete death.
(§2) The seedlings are then transfered to pots with a diameter of 10 cm and grown in soil to the nine leaf stage.
(§3) Preselected transgenic Arabidopsis plants expressing heterologous Scenedesmus obliquus HPPD mutant enzymes as defined in Seq ID No. 48 and Seq ID No. 50 are tested for tolerance against HPPD-inhibiting 4-bromo-3-(dicyclopropylcarbamoylamino)-6-fluoro-2-methyl-N(1-methyltetrazol-5-yl) benzamide herbicide in greenhouse experiments.
(§4) Transgenic lines are tested expressing heterologous Scenedesmus obliquus HPPD coding sequences under control of the constitutive parsley ubiquitin promoter and the nos terminator. One construct contains the full length Scenedesmus obliquus HPPD enzyme (Seq ID No. 47) while in a second construct the naturally occurring C-terminal insertion of 36 amino acids at position 442-477 is deleted (Seq ID No. 49). Both coding sequences carry the mutation F363I.
(§5) Broadleaf plants are more sensitive to HPPD inhibitors when applied post-emergence as compared to a pre-emergence testing. Therefore, transgenic lines are tested in a post emergence setting at about the nine leaf stage.
(§6) For the herbicide treatment of transgenic lines 4-bromo-3-(dicyclopropylcarbamoylamino)-6-fluoro-2-methyl-N-(1-methyltetrazol-5-yl) benzamide is applied at use rates of 25, 50 and 100 g/ha (see FIG. 3)
(§7) Treated plants are assessed 14 days after treatment (DAT) in the post-emergence setting.

[3] = system: Transgenic MC24 plants expressing the Scenedesmus obliquus HPPD full length coding sequence (SEQ ID NO: 47); test: Greenhouse post-emergence herbicide tolerance test, transgenic lines expressing full length Scenedesmus obliquus HPPD (F363I); type: in vivo, Arabidopsis thaliana
Description: as §1, §2, §3, §4, §5, §6, §7

Cc1c(NC(=O)N(C2CC2)C2CC2)c(Br)cc(F)c1C(=O)Nc1nnnn1C [4-bromo-3-(dicyclopropylcarbamoylamino)-6-fluoro-2-methyl-N-(1-methyltetrazol-5-yl) benzamide]
sensitivity of untransformed MC24 plants towards the herbicide (plant death) [1]: die even at the lowest rate
herbicide tolerance of transgenic lines ([2]; short S. obliquus HPPD F363I, 25 to 100 g/ha, post-emergence, 9 leaf stage, 14 DAT (FIG. 3)): show herbicide tolerance
herbicidal injury of transgenic lines ([2]; short S. obliquus HPPD F363I, 50 to 100 g/ha, post-emergence, 14 DAT (FIG. 3)): Little herbicidal injury
injury of plants with S. obliquus HPPD gene carrying F363I (overall assessment) ([2]; short construct, shown rates 25, 50 and 100 g/ha, 14 days after treatment): very little to no injury
herbicide tolerance of full length sequence compared to HPPD not containing the C-terminal loop ([3]; 25-100 g/ha, 14 days after treatment): slightly better herbicide tolerance
herbicide tolerance of transgenic lines ([3]; full length S. obliquus HPPD F363I, 25-100 g/ha, post-emergence, 9 leaf stage, 14 DAT (FIG. 4)): show herbicide tolerance
injury of plants with S. obliquus HPPD gene carrying F363I (overall assessment) ([3]; full length construct, shown rates 25, 50 and 100 g/ha, 14 days after treatment): very little to no injury
